# Columns and labels:
# healthy subjects [1] = test: Adverse event monitoring; type: in vivo, human
# Text: Blood and urine samples for conventional clinical laboratory safety tests were obtained at the screening visit, in the morning of each main profiling day, and on Day 19. Adverse events (AEs) were monitored throughout the study.
# [2] = design: method as in PMID 20690782; conditions: cited from earlier work
# healthy subjects [3] = test: Transthoracic impedance cardiography (ZCG) and systolic time intervals in healthy men; oral roflumilast 500 μg once daily, inhaled formoterol 24 μg twice daily; conditions: Regimen A
# Protocol: For Regimen A, subjects received 500 μg oral roflumilast once daily (daily dose: one tablet of roflumilast 500 μg) from the morning of Day 2 to the morning of Day 18. […] For Regimen B, subjects received 24 μg formoterol for oral inhalation delivered by a DPI device (Foradil® P) twice daily, once in the morning and once in the evening from the morning of Day 2 to the evening of Day 18.
# Cardiovascular effects were evaluated non-invasively by means of ECGs (cardiac rhythm, intra-cardiac conduction and ventricular repolarisation), oscillometric blood pressure and transthoracic impedance cardiography (ZCG; systolic time intervals, contractility indices and estimates of stroke volume and cardiac output). Cardiovascular assessments (oscillometric blood pressure, pulse rate, 12-lead ECG, and three-lead ZCG) were recorded before dosing and at 10, 20, 40 and 60 minutes, and at 2, 3, 4, 5, 6, 7 and 8 hours after morning dosing. […] All cardiovascular measurements were carried out after the subjects had been recumbent for at least 10 minutes; they generally stayed in bed from 1 hour before until 8 hours after morning dosing.
# Systolic time intervals (STIs) and ZCG estimates of the systolic cardiac pump performance were derived from the simultaneous registration of a one-lead ECG, a phonocardiogram (PCG), and the rate of change of the transthoracic impedance (dZ/dt) to an AC current applied through the thoracic cage (CARDIODYNAGRAPH; Diefenbach GmbH, Wiesbaden, Germany). Tracings were captured and stored digitally during the study and subsequently analysed after the study by displaying the analogue ECG, PCG and ZCG signals on a computer screen. The relevant signal amplitudes and time intervals were delineated manually by operator-steered cursors; measurements were made for at least 10 artefact-free consecutive cardiac cycles. From these tracings, the following variables were derived by direct measurement: RR interval (ms), total electromechanic systole (QS2 [ms]), ventricular ejection time (VET [ms]), baseline transthoracic impedance (Z0 [Ω]), and maximum negative velocity of transthoracic impedance changes during the cardiac cycle (dZ/dtmax [Ω/s]). These variables were analysed for the 10 cycles and their means were used in the calculations of the following variables: heart rate (HR [bpm]), pre-ejection period (PEP [ms] = QS2 - VET), HR-corrected STIs (STIc and STIi according to Weissler et al.), ZCG estimates of stroke volume (SV [mL] according to Kubicek's equation [37] using the equation of Geddes and Sadler for the specific resistance of blood), cardiac output (CO [mL/min]), and total peripheral resistance (TPR [dyn.s.cm^-5]). For the latter variable, the mean blood pressure (MBP [mmHg]) was used as calculated according to Wezler and Böger from the systolic blood pressure (mmHg) and the diastolic blood pressure (mmHg).
# ZCG analysis was carried out by a single analyst who was blinded with regard to subject, study regimen, profiling day within regimen, and time during the day.
# healthy subjects [4] = test: Digital 12-lead electrocardiography (HR, QT, QTc); type: in vivo, human
# Protocol: Digital 12-lead ECGs were recorded immediately after each ZCG recording. Tracings were analysed off-study by regimen-blinded qualified analysts, using previously reported methodology. For each time point, three cycles were measured with regard to the RR, PQ and QT-intervals [ms]. The means of the three measurements were used for the calculation of HR and HR-corrected QTc intervals, according to Bazett's equation (QTcB = QT/RR^1/2) and Fridericia's equation (QTcF = QT/RR^1/3).
smiles,measurement,setting,value
"O=C(Nc1c(Cl)cncc1Cl)c1ccc(OC(F)F)c(OCC2CC2)c1 [Roflumilast, 3-cyclopropylmethoxy-N-(3,5-dichloropyridin-4-yl)-4-(difluoromethoxy)benzamide]",number of AEs,"healthy subjects [1]; Regimen A, Day 2 to Day 11",17 AEs
same,subjects who experienced AEs,"healthy subjects [1]; Regimen A, Day 2 to Day 11, n = 12",7 subjects
same,dizziness reports,"healthy subjects [1]; Regimen A, roflumilast alone",four
same,myalgia reports,"healthy subjects [1]; Regimen A, roflumilast alone",four
same,tremor,healthy subjects [1]; administered alone (Regimens A and B respectively),not observed
same,increase in tPDE4i expected in patients with COPD compared with healthy individuals,[2],12.6%
same,"CO, Day 1-matched post-dose maximum dmax (δ), median",healthy subjects [3]; Day 11 (R),1.6 L/min
same,"CO, Day 1-matched post-dose minimum dmin (δ), median",healthy subjects [3]; Day 11 (R),-1.7 L/min
same,"CO, untransformed post-dose maximum dmax (U), median",healthy subjects [3]; Day 11 (R),10.6 L/min
same,"CO, untransformed post-dose minimum dmin (U), median",healthy subjects [3]; Day 11 (R),8.3 L/min
same,"CO, untransformed pre-dose morning value, median",healthy subjects [3]; Day 11 (R),9.1 L/min
same,"HR, Day 1-matched post-dose maximum dmax (δ), median",healthy subjects [3]; Day 11 (R),9 bpm
same,"HR, Day 1-matched post-dose minimum dmin (δ), median",healthy subjects [3]; Day 11 (R),-4 bpm
same,"HR, untransformed post-dose maximum dmax (U), median",healthy subjects [3]; Day 11 (R),64 bpm
same,"HR, untransformed post-dose minimum dmin (U), median",healthy subjects [3]; Day 11 (R),54 bpm
same,"HR, untransformed pre-dose morning value, median",healthy subjects [3]; Day 11 (R),63 bpm
same,"PEP, Day 1-matched post-dose maximum dmax (δ), median",healthy subjects [3]; Day 11 (R),25 ms
same,"PEP, Day 1-matched post-dose minimum dmin (δ), median",healthy subjects [3]; Day 11 (R),-27 ms
same,"PEP, untransformed post-dose maximum dmax (U), median",healthy subjects [3]; Day 11 (R),121 ms
same,"PEP, untransformed post-dose minimum dmin (U), median",healthy subjects [3]; Day 11 (R),86 ms
same,"PEP, untransformed pre-dose morning value, median",healthy subjects [3]; Day 11 (R),94 ms
same,"QS2, Day 1-matched post-dose maximum dmax (δ), median",healthy subjects [3]; Day 11 (R),19 ms
same,"QS2, Day 1-matched post-dose minimum dmin (δ), median",healthy subjects [3]; Day 11 (R),-34 ms
same,"QS2, untransformed post-dose maximum dmax (U), median",healthy subjects [3]; Day 11 (R),454 ms
same,"QS2, untransformed post-dose minimum dmin (U), median",healthy subjects [3]; Day 11 (R),410 ms
same,"QS2, untransformed pre-dose morning value, median",healthy subjects [3]; Day 11 (R),423 ms
same,"TPR, Day 1-matched post-dose maximum dmax (δ), median",healthy subjects [3]; Day 11 (R),126 dyn.s.cm^-5
same,"TPR, Day 1-matched post-dose minimum dmin (δ), median",healthy subjects [3]; Day 11 (R),-128 dyn.s.cm^-5
same,"TPR, untransformed post-dose maximum dmax (U), median",healthy subjects [3]; Day 11 (R),934 dyn.s.cm^-5
same,"TPR, untransformed post-dose minimum dmin (U), median",healthy subjects [3]; Day 11 (R),733 dyn.s.cm^-5
same,"TPR, untransformed pre-dose morning value, median",healthy subjects [3]; Day 11 (R),838 dyn.s.cm^-5
same,"dZ/dt, Day 1-matched post-dose maximum dmax (δ), median",healthy subjects [3]; Day 11 (R),0.28 Ω/s
same,"dZ/dt, Day 1-matched post-dose minimum dmin (δ), median",healthy subjects [3]; Day 11 (R),-0.10 Ω/s
same,"dZ/dt, untransformed post-dose maximum dmax (U), median",healthy subjects [3]; Day 11 (R),1.93 Ω/s
same,"dZ/dt, untransformed post-dose minimum dmin (U), median",healthy subjects [3]; Day 11 (R),1.56 Ω/s
same,"dZ/dt, untransformed pre-dose morning value, median",healthy subjects [3]; Day 11 (R),1.67 Ω/s
same,"CO, dmax (U), point estimate (95% CI) of difference between days",healthy subjects [3]; Day 11-Day 1,0.2 (-1.1 to 1.4) L/min
same,"CO, dmin (U), point estimate (95% CI) of difference between days",healthy subjects [3]; Day 11-Day 1,-0.4 (-1.2 to 0.4) L/min
same,"CO, untransformed pre-dose morning value, point estimate (95% CI) of difference between days",healthy subjects [3]; Day 11-Day 1,-0.6 (-1.7 to 0.5) L/min
same,"HR, dmax (U), point estimate (95% CI) of difference between days",healthy subjects [3]; Day 11-Day 1,3 (-4 to 6) bpm
same,"HR, dmin (U), point estimate (95% CI) of difference between days",healthy subjects [3]; Day 11-Day 1,4 (1 to 7) bpm
same,"HR, untransformed pre-dose morning value, point estimate (95% CI) of difference between days",healthy subjects [3]; Day 11-Day 1,3 (-5 to 8) bpm
same,"PEP, dmax (U), point estimate (95% CI) of difference between days",healthy subjects [3]; Day 11-Day 1,3 (-7 to 11) ms
same,"PEP, dmin (U), point estimate (95% CI) of difference between days",healthy subjects [3]; Day 11-Day 1,0 (-9 to 13) ms
same,"PEP, untransformed pre-dose morning value, point estimate (95% CI) of difference between days",healthy subjects [3]; Day 11-Day 1,-3 (-17 to 10) ms
same,"QS2, dmax (U), point estimate (95% CI) of difference between days",healthy subjects [3]; Day 11-Day 1,-1 (-11 to 11) ms
same,"QS2, dmin (U), point estimate (95% CI) of difference between days",healthy subjects [3]; Day 11-Day 1,-9 (-21 to 8) ms
same,"QS2, untransformed pre-dose morning value, point estimate (95% CI) of difference between days",healthy subjects [3]; Day 11-Day 1,-10 (-21 to 2) ms
same,"TPR, dmax (U), point estimate (95% CI) of difference between days",healthy subjects [3]; Day 11-Day 1,47 (-124 to 178) dyn.s.cm^-5
same,"TPR, dmin (U), point estimate (95% CI) of difference between days",healthy subjects [3]; Day 11-Day 1,-18 (-96 to 43) dyn.s.cm^-5
same,"TPR, untransformed pre-dose morning value, point estimate (95% CI) of difference between days",healthy subjects [3]; Day 11-Day 1,14 (-98 to 121) dyn.s.cm^-5
same,"dZ/dt, dmax (U), point estimate (95% CI) of difference between days",healthy subjects [3]; Day 11-Day 1,-0.05 (-0.25 to 0.15) Ω/s
same,"dZ/dt, dmin (U), point estimate (95% CI) of difference between days",healthy subjects [3]; Day 11-Day 1,0.03 (-0.18 to 0.20) Ω/s
same,"dZ/dt, untransformed pre-dose morning value, point estimate (95% CI) of difference between days",healthy subjects [3]; Day 11-Day 1,-0.06 (-0.29 to 0.16) Ω/s
same,effect on cardiovascular function (ZCG/STI variables),healthy subjects [3]; roflumilast alone,little effect
same,HR (ECG),healthy subjects [4]; 12-lead ECG,slight increase
same,"QTc values, uncorrected or corrected using Bazett's or Fridericia's formula",healthy subjects [4]; 12-lead ECG,no clinically relevant changes
same,duration of the QT interval,healthy subjects [4]; 12-lead ECG,decrease
same,QT/QTc intervals,"healthy subjects [4]; all subjects, all regimens",below 450 ms
